According to patent publication US20070293512A1, “Condensed Pyrimidine Deriviative and Xanthine Oxidase Inhibitor” (priority 2004, published 2007):
pIC50: −log10 of the molar value.

What was measured:
[1] = molecular target: T1, Cow milk Xanthine Oxidase (Bos taurus, UniProt P80457); test: Xanthine oxidase inhibition, in vitro (oxidation of xanthine, absorbance at 290 nm); type: biochemical; settings: xanthine 250 μM, 50 mM phosphate buffer pH 7.5, 30° C., 10 minutes
T1 construct: Cow milk Xanthine Oxidase (Roche); purchased Roche; host or cells: cow milk (natural source)
Procedure: The xanthine oxidase inhibiting action (in vitro test) of the compound of the invention was confirmed by measuring inhibition of oxidation of xanthine by xanthine oxidase, as described in Example 50. As is clear from Tables 11 and 12, the compounds of the invention show excellent xanthine oxidase inhibiting action.
Pharmacological Experiment 1 (In Vitro Measuring Method)
1. Preparation of Test Sample
The test compound was dissolved in dimethylsulfoxide and diluted with 50 mM phosphate buffer (pH 7.5), to give a solution of a predetermined concentration.
125 μL of each of the solutions of the test compound having different concentrations was added to 1 mL of a solution of Xanthine (SIGMA, 250 μM) in the 50 mM phosphor buffer (pH 7.5). The mixture was then pre-incubated at 30° C. for 5 min. Subsequently, to the pre-incubated mixture was added 125 μL of Cow milk Xanthine Oxidase (Roche) diluted with the 50 mM phosphate buffer (pH 7.5) to 70 mU/mL, and the mixture was subjected to reaction at 30° C. for 10 minutes. Then, 1N hydrochloric acid, (200 μL) was added to the reaction mixture to terminate the reaction. Subsequently, absorbance at OD 290 nm was measured by means of a spectrophotometer (Shimadzu UV-160A)., to obtain a inhibition ratio. The measured inhibition ration was used to obtain […]
The inhibition ratio was calculated according to the following formula: Inhibition ratio (%)=[1−(B−C)/(A−C)]×100 • A: absorbance of control • B: absorbance measured on a sample containing test compound • C: absorbance of blank (Test Results)

T1 sequence (P80457 whole entry): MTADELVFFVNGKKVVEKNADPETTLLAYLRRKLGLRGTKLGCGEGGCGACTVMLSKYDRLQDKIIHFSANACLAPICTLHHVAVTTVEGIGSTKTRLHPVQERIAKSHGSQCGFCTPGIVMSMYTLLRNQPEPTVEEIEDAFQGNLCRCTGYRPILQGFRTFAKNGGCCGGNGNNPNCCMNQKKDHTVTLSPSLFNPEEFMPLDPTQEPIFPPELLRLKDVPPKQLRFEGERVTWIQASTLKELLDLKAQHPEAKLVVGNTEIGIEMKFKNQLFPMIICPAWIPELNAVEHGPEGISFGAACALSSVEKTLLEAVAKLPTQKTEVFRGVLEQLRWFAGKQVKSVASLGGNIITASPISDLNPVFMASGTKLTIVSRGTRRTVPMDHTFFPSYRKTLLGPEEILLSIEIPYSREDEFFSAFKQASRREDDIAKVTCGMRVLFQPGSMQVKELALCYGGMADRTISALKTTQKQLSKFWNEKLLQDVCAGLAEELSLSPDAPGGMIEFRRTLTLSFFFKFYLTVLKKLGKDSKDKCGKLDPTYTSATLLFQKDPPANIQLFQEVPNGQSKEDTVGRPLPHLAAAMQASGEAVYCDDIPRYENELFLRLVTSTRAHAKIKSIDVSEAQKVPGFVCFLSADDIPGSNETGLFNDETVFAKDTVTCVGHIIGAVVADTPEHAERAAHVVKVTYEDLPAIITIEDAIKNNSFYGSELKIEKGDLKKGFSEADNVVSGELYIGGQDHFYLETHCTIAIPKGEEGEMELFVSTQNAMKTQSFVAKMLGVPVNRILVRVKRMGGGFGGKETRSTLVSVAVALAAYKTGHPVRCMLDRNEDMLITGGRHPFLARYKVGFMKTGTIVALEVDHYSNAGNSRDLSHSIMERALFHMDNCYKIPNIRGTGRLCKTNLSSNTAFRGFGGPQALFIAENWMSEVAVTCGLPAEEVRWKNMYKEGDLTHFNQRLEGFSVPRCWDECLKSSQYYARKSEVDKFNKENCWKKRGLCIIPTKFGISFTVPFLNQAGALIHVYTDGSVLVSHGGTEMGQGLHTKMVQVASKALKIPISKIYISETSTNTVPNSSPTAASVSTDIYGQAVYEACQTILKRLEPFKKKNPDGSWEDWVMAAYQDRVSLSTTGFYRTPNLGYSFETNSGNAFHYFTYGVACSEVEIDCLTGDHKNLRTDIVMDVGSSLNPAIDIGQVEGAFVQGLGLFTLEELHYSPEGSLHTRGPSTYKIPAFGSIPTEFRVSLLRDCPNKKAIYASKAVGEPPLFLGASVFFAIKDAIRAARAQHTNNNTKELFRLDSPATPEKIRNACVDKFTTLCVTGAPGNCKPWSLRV

| pIC50 [1] | melting point | Structure (SMILES) |
| --- | --- | --- |
| 7.52 | > 250 °C | O=[N+]([O-])c1cc(-c2nc3c(O)ncnc3o2)ccc1Sc1ccc(Cl)cc1 [Example 6, 2-[4-(4-Chlorophenylthio)-3-nitrophenyl]-4-hydroxyoxazolo[5,4-d]pyrimidine] |
| 7.99 | 279 to 281 °C (dec.) | O=[N+]([O-])c1cc(-c2nc3c(O)ncnc3s2)ccc1Oc1cccc(F)c1 [Example 20, 2-[4-(3-Fluorophenoxy)-3-nitrophenyl]-4-hydroxythiazolo[5,4-d]pyrimidine] |
| 8.04 | 276 to 280 °C (dec.) | O=[N+]([O-])c1cc(-c2nc3c(O)ncnc3s2)ccc1Oc1cccnc1 [Example 32, 4-Hydroxy-2-[3-nitro-4-(3-pyridyloxy)-phenyl]thiazolo[5,4-d]pyrimidine] |
